According to patent publication US7511145B2 (Genelabs Technologies, Inc., priority 2003, dated 2009):

Biological target: T1, HCV-NS5b (Hepatitis C virus genotype 1b, UniProt Q9WMX2)
T1 construct: (His)6 (C); made in house; host or cells: XL-1 cells (E. coli), IPTG-inducible plasmid, nickel-NTA purification
Test: HCV-NS5b enzyme assay (incorporation of radiolabeled UTP)
Format: biochemical
Settings: for inhibition at 33 µM: enzyme inhibition at compound concentration of 33 uM; for inhibition at 100 µM: read-out: % inh@100, enzyme inhibition at compound concentration of 100 uM
Summary of the method: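 Percent inhibition, background-corrected against uninhibited control, was measured at 100 and 33 uM compound. Incorporation of [3H]-UTP (10 μM each NTP) into biotinylated HCV-template RNA, 37° C for 2 h, pH 7.5, scintillation proximity. Enzyme: C-terminally truncated (21 aa), His6-tagged NS5b from XL-1.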

Nc1cc(-c2ccccc2)sc1-c1ccc2cc(-c3nc4cc(C(=O)O)ccc4n3C3CCCCC3)ccc2n1 [Compound 480, 2-[2-(3-amino-5-phenyl-thiophen-2-yl)-quinolin-6-yl]-1-cyclohexyl-1H-benzoimidazole-5-carboxylic acid]
inhibition at 33 µM: 101%
inhibition at 100 µM: 104%

CN(C)c1cc(-c2ccccc2)nc2ccc(-c3nc4cc(C(=O)O)ccc4n3C3CCCCC3)cc12 [Compound 481, 1-cyclohexyl-2-(4-dimethylamino-2-phenyl-quinolin-6-yl)-1H-benzoimidazole-5-carboxylic acid]
inhibition at 33 µM: 76.5%
inhibition at 100 µM: 96.7%

O=C(O)c1ccc2c(c1)nc(-c1ccc3nc(-c4cccc(Br)c4)ccc3c1)n2C1CCCCC1 [Compound 482, 2-[2-(3-bromo-phenyl)-quinolin-6-yl]-1-cyclohexyl-1H-benzoimidazole-5-carboxylic acid]
inhibition at 33 µM: 100%
inhibition at 100 µM: 101%

O=C(O)c1ccc2c(c1)nc(-c1ccc3nc(-c4cccc(-c5ccc(Cl)cc5)c4)ccc3c1)n2C1CCCCC1 [Compound 483, 2-[2-(4′-chloro-biphenyl-3-yl)-quinolin-6-yl]-1-cyclohexyl-1H-benzoimidazole-5-carboxylic acid]
inhibition at 33 µM: 102%
inhibition at 100 µM: 99.4%

COc1ccc(-c2cnc(OC)nc2OC)c(-c2ccc3cc(-c4nc5cc(C(=O)O)ccc5n4C4CCCCC4)ccc3n2)c1 [Compound 484, 1-cyclohexyl-2-{2-[2-(2,4-dimethoxy-pyrimidin-5-yl)-5-methoxy-phenyl]-quinolin-6-yl}-1H-benzoimidazole-5-carboxylic acid]
inhibition at 33 µM: 99.6%
inhibition at 100 µM: 98.3%

Cc1cc(-c2ccccc2-c2ccc(Cl)cc2)nc2ccc(-c3nc4cc(C(=O)O)ccc4n3C3CCCCC3)cc12 [Compound 485, 2-[2-(4′-Chloro-biphen-2-yl)-4-methyl-quinolin-6-yl]-1-cyclohexyl-1H-benzoimidazole-5-carboxylic acid]
inhibition at 33 µM: 98.6%
inhibition at 100 µM: 99.5%

COc1cccc(-c2ccc3cc(-c4nc5cc(C(=O)O)ccc5n4C4CCCCC4)ccc3n2)c1 [Compound 486, 1-Cyclohexyl-2-[2-(3-methoxy-phenyl)-quinolin-6-yl]-1H-benzoimidazole-5-carboxylic acid]
inhibition at 33 µM: 93.5%
inhibition at 100 µM: 97.9%

O=C(O)c1ccc2c(c1)nc(-c1ccc3nc(-c4cc(O)ccc4-c4ccccc4)ccc3c1)n2C1CCCCC1 [Compound 487, 1-Cyclohexyl-2-[2-(4-hydroxy-biphen-2-yl)-quinolin-6-yl]-1H-benzoimidazole-5-carboxylic acid]
inhibition at 33 µM: 102%
inhibition at 100 µM: 101%

O=C(O)c1ccc2c(c1)nc(-c1ccc3nc(-c4ccc(N5CCNCC5)cc4)ccc3c1)n2C1CCCCC1 [Compound 488, 1-cyclohexyl-2-[2-(4-piperazin-1-yl-phenyl)-quinolin-6-yl]-1H-benzoimidazole-5-carboxylic acid]
inhibition at 33 µM: 91.8%
inhibition at 100 µM: 97.2%

CCCN(CCC)Cc1ccc2cc(-c3nc4cc(C(=O)O)ccc4n3C3CCCCC3)ccc2n1 [Compound 489, 1-cyclohexyl-2-(2-dipropylaminomethyl-quinolin-6-yl)-1H-benzoimidazole-5-carboxylic acid]
inhibition at 33 µM: 87%
inhibition at 100 µM: 96%

O=C(O)c1cnc2c(c1)nc(-c1ccc3nc(-c4ccccc4-c4ccc(Cl)cc4)ccc3c1)n2C1CCCCC1 [Compound 490, 2-[2-(4′-chloro-biphen-2-yl)-quinolin-6-yl]-3-cyclohexyl-3H-imidazo[4,5-b]pyridine-6-carboxylic acid]
inhibition at 33 µM: 95.9%
inhibition at 100 µM: 94.3%

CN(C)CCNC(=O)c1ccc(-c2ccc(Cl)cc2)c(-c2ccc3cc(-c4nc5cc(C(=O)O)ccc5n4C4CCCCC4)ccc3n2)c1 [Compound 491, 2-{2-[4′-Chloro-4-(2-dimethylamino-ethylcarbamoyl)-biphen-2-yl]-quinolin-6-yl}-1-cyclohexyl-1H-benzoimidazole-5-carboxylic acid]
inhibition at 33 µM: 98.3%
inhibition at 100 µM: 100%

O=C(O)c1ccc2c(c1)nc(-c1ccc3nc(-c4ccc(Oc5ccc(Cl)cc5)cc4Cl)ccc3c1)n2C1CCCCC1 [Compound 492, 2-{2-[2-chloro-4-(4-chloro-phenoxy)-phenyl]-quinolin-6-yl}-1-cyclohexyl-1H-benzoimidazole-5-carboxylic acid]
inhibition at 33 µM: 99.2%
inhibition at 100 µM: 100%

COc1ccc2occ(-c3ccc4cc(-c5nc6cc(C(=O)O)ccc6n5C5CCCCC5)ccc4n3)c2c1 [Compound 493, 1-cyclohexyl-2-[2-(5-methoxy-benzofuran-3-yl)-quinolin-6-yl]-1H-benzoimidazole-5-carboxylic acid]
inhibition at 33 µM: 101%
inhibition at 100 µM: 100%

CCOc1cc(-c2ccccc2)nc2ccc(-c3nc4cc(C(=O)O)ccc4n3C3CCCCC3)cc12 [Compound 494, 1-cyclohexyl-2-(4-ethoxy-2-phenyl-quinolin-6-yl)-1H-benzoimidazole-5-carboxylic acid]
inhibition at 33 µM: 94.8%
inhibition at 100 µM: 99.2%

COc1cc(OC)cc(-c2ccc3cc(-c4nc5cc(C(=O)O)ccc5n4C4CCCCC4)ccc3n2)c1 [Compound 495, 1-cyclohexyl-2-[2-(3,5-dimethoxy-phenyl)-quinolin-6-yl]-1H-benzoimidazole-5-carboxylic acid]
inhibition at 33 µM: 99.8%
inhibition at 100 µM: 101%

O=C(O)c1ccc2c(c1)nc(-c1ccc3nc(-c4ccccc4)cc(Oc4ccccc4)c3c1)n2C1CCCCC1 [Compound 496, 1-cyclohexyl-2-(4-phenoxy-2-phenyl-quinolin-6-yl)-1H-benzoimidazole-5-carboxylic acid]
inhibition at 33 µM: 101%
inhibition at 100 µM: 101%

CC(NC(=O)c1ccc2cc(-c3nc4cc(C(=O)O)ccc4n3C3CCCCC3)ccc2n1)C(N)=O (stereo not shown) [Compound 497, 2-[2-(1-Carbamoylethylcarbamoyl)quinolin-6-yl]-1-cyclohexyl-1H-benzimidazole-5-carboxylic acid]
inhibition at 33 µM: 65.5%
inhibition at 100 µM: 88.5%

Cc1cc(-c2ccccc2)nc2ccc(-c3nc4cc(C(=O)O)ccc4n3C3CCCCC3)cc12 [Compound 498, 1-Cyclohexyl-2-(4-methyl-2-phenyl-quinolin-6-yl)-1H-benzoimidazole-5-carboxylic acid]
inhibition at 33 µM: 98.5%
inhibition at 100 µM: 100%

COc1ccc(-c2ccccc2)c(-c2ccc3cc(-c4nc5cc(C(=O)O)ccc5n4C4CCCCC4)ccc3n2)c1 [Compound 499, 1-Cyclohexyl-2-[2-(4-methoxy-biphen-2-yl)-quinolin-6-yl]-1H-benzoimidazole-5-carboxylic acid]
inhibition at 33 µM: 101%
inhibition at 100 µM: 99.7%

O=C(O)c1ccc2c(c1)nc(-c1ccc3nc(-c4cc(O)ccc4-c4ccc(Cl)cc4)ccc3c1)n2C1CCCCC1 [Compound 500, 2-[2-(4′-Chloro-4-hydroxy-biphen-2-yl)-quinolin-6-yl]-1-cyclohexyl-1H-benzoimidazole-5-carboxylic acid]
inhibition at 33 µM: 101%
inhibition at 100 µM: 101%

CC(=O)Nc1ccc(-c2ccc3cc(-c4nc5cc(C(=O)O)ccc5n4C4CCCCC4)ccc3n2)cc1 [Compound 501, 2-[2-(4-acetylamino-phenyl)-quinolin-6-yl]-1-cyclohexyl-1H-benzoimidazole-5-carboxylic acid]
inhibition at 33 µM: 90.6%
inhibition at 100 µM: 96.8%

CC1(C)C(CC(=O)O)CC1c1ccc2cc(-c3nc4cc(C(=O)O)ccc4n3C3CCCCC3)ccc2n1 (stereo not shown) [Compound 502, 2-[2-(3-carboxymethyl-2,2-dimethyl-cyclobutyl)-quinolin-6-yl]-1-cyclohexyl-1H-benzoimidazole-5-carboxylic acid]
inhibition at 33 µM: 99%
inhibition at 100 µM: 100%

O=C(O)c1ccc2c(c1)nc(-c1ccc3nc(-c4cccc(OCC(=O)N5CCCC5)c4)ccc3c1)n2C1CCCCC1 [Compound 503, 1-cyclohexyl-2-{2-[3-(2-oxo-2-pyrrolidin-1-yl-ethoxy)-phenyl]-quinolin-6-yl}-1H-benzoimidazole-5-carboxylic acid]
inhibition at 33 µM: 95.8%
inhibition at 100 µM: 97%

CN(C)CCNC(=O)c1ccc(-c2ccccc2)c(-c2ccc3cc(-c4nc5cc(C(=O)O)ccc5n4C4CCCCC4)ccc3n2)c1 [Compound 504, 1-Cyclohexyl-2-{2-[4-(2-dimethylamino-ethylcarbamoyl)-biphen-2-yl]-quinolin-6-yl}-1H-benzoimidazole-5-carboxylic acid]
inhibition at 33 µM: 98.3%
inhibition at 100 µM: 100%

Cc1oc(-c2ccc(Cl)cc2)cc1-c1ccc2cc(-c3nc4cc(C(=O)O)ccc4n3C3CCCCC3)ccc2n1 [Compound 505, 2-{2-[5-(4-chloro-phenyl)-2-methyl-furan-3-yl]-quinolin-6-yl}-1-cyclohexyl-1H-benzoimidazole-5-carboxylic acid]
inhibition at 33 µM: 99.7%
inhibition at 100 µM: 102%

CCOCCOc1ccc(-c2ccc(Cl)cc2)c(-c2ccc3cc(-c4nc5cc(C(=O)O)ccc5n4C4CCCCC4)ccc3n2)c1 [Compound 507, 2-{2-[4′-Chloro-4-(2-ethoxy-ethoxy)-biphen-2-yl]-quinolin-6-yl}-1-cyclohexyl-1H-benzoimidazole-5-carboxylic acid]
inhibition at 33 µM: 101%
inhibition at 100 µM: 101%

O=C(O)c1ccc2c(c1)nc(-c1ccc3nc(-c4ccc(Cl)c(Cl)c4)ccc3c1)n2C1CCCCC1 [Compound 508, 1-cyclohexyl-2-[2-(3,4-dichloro-phenyl)-quinolin-6-yl]-1H-benzoimidazole-5-carboxylic acid]
inhibition at 33 µM: 98.9%
inhibition at 100 µM: 98.9%

O=C(O)c1ccc2c(c1)nc(-c1ccc3nc(-c4ccccc4)cc(Oc4ccc5ccc(O)cc5c4)c3c1)n2C1CCCCC1 [Compound 509, 1-cyclohexyl-2-[4-(7-hydroxy-naphthalen-2-yloxy)-2-phenyl-quinolin-6-yl]-1H-benzoimidazole-5-carboxylic acid]
inhibition at 33 µM: 100%
inhibition at 100 µM: 101%
